Assays:
[1] = test system: Pyrenophora teres; assay: Action against Pyrenophora teres (net blotch), barley leaf segments, preventive; assay type: in vivo; settings: foliar, 60 ppm active ingredient, sprayed before inoculation, assessed 4 dpi, read-out: inhibition (preventive fungicidal activity)
Description: (§1) Barley leaf segments are placed on agar in multiwell plates (24-well format) and sprayed with test solutions (60 ppm active ingredient). After drying, the leaf disks are inoculated with a spore suspension of the fungus. After appropriate incubation the activity of a compound is assessed 4 dpi (days after inoculation) as preventive fungicidal activity.

[2] = test system: Fusarium culmorum; assay: whole plant or invertebrate; assay type: in vivo; settings: in Triticum aestivum, read-out: inhibition (preventative fungicidal activity)
[3] = test system: Fusarium graminearum, Syn. Gibberella zeae; assay: whole plant or invertebrate; assay type: in vivo; settings: in Triticum aestivum, read-out: inhibition (preventative fungicidal activity)
[4] = test system: Phaeosphaeria nodorum (Septoria nodorum); assay: Action against Phaeosphaeria nodorum/wheat/leaf disc preventative (glume blotch); assay type: in vivo; settings: wheat leaf segments, 60 ppm active ingredient, sprayed before inoculation, assessed 4 dpi
Description: as §1, with “Wheat leaf segments” for “Barley leaf segments”, “agar in a multiwell plate” for “agar in multiwell plates”, “a multiwell plate (24-well format)” for “in multiwell plates (24-well format)”

[5] = test system: Monographella nivalis (Microdochium nivale); assay: Action against Monographella nivalis/liquid culture (foot rot cereals); assay type: cell-based; settings: liquid culture (PDB), 200 ppm active ingredient, 24° C., photometrically after 4-6 days
Description: Conidia of the fungus from cryogenic storage are directly mixed into nutrient broth (PDB potato dextrose broth). After placing a (DMSO) solution of the test compounds (200 ppm active ingredient) into a microtiter plate (96-well format) the nutrient broth containing the fungal spores is added. The test plates are incubated at 24° C. and the inhibition of growth is measured photometrically after 4-6 days.

[6] = test system: Puccinia recondita; assay: Action against Puccinia recondita/wheat/leaf disc curative (brown rust); assay type: in vivo; settings: wheat leaf segments, 200 ppm active ingredient, applied one day after inoculation, assessed 8 dpi
From the text: Wheat leaf segments are placed on agar in multiwell plates (24-well format). The leaf disks are then inoculated with a spore suspension of the fungus. One day after inoculation the test solution is applied (200 ppm active ingredient).

## CON(C(=O)c1cn(C)nc1C(F)F)C(C)Cc1sc2ccc(Cl)cc2c1Cl (centres unmarked) [Compound 1.001, 3-Difluoromethyl-1-methyl-1H-pyrazole-4-carboxylic acid [2-(3,5-dichlorobenzo[b]thiophen-2-yl)-1-methyl-ethyl]methoxyamide]
[1]
  inhibition at 60 ppm: ≥ 80%
other
  melting point: 129 to 131 °C
[2]
  inhibition at 60 ppm: ≥ 80%
[3]
  inhibition at 60 ppm: ≥ 80%

## CON(C(=O)c1cn(C)nc1C(F)F)C(C)Cc1sc2cc(Cl)ccc2c1Cl (centres unmarked) [Compound 1.002]
[4]
  inhibition (preventive fungicidal activity): 80%
[5]
  inhibition of growth: 80%

## CON(C(=O)c1cn(C)nc1C(F)F)C(C)Cc1sc2ccc(Br)cc2c1Cl (centres unmarked) [Compound 1.006]
[6]
  inhibition (curative fungicidal activity): 80%
[4]
  inhibition (preventive fungicidal activity): 80%
[5]
  inhibition of growth: 80%

## CC(Cc1sc2ccc(Cl)cc2c1Cl)N(O)C(=O)c1cn(C)nc1C(F)F (centres unmarked) [Compound 1.010]
[5]
  inhibition of growth: 80%

## COC(c1sc2cc(Cl)ccc2c1Cl)C(C)N(OC)C(=O)c1cn(C)nc1C(F)F (centres unmarked) [Compound 1.015]
[4]
  inhibition (preventive fungicidal activity): 80%
[5]
  inhibition of growth: 80%

## COC(c1sc2ccc(Br)cc2c1Cl)C(C)N(OC)C(=O)c1cn(C)nc1C(F)F (centres unmarked) [Compound 1.016]
[5]
  inhibition of growth: 80%

## CON(C(=O)c1cn(C)nc1C(F)(F)F)C(C)Cc1sc2cc(Cl)ccc2c1Cl (centres unmarked) [Compound 2.002]
[4]
  inhibition (preventive fungicidal activity): 80%
[5]
  inhibition of growth: 80%

## COC(c1sc2cc(Cl)ccc2c1Cl)C(C)N(OC)C(=O)c1cn(C)nc1C(F)(F)F (centres unmarked) [Compound 2.015]
[5]
  inhibition of growth: 80%

## CON(C(=O)c1c(C)nn(C)c1F)C(C)Cc1sc2cc(Cl)ccc2c1Cl (centres unmarked) [Compound 3.002]
[4]
  inhibition (preventive fungicidal activity): 80%
